Experimental data published in patent US10745365B2, “Luminogenic and fluorogenic compounds and methods to detect molecules or conditions” (Promega Corporation, priority 2005, dated 2020).
Where two headings read alike, the source gives them in different places.

Key:
CYP2D6 = target: T1, CYP2D6 (Homo sapiens, UniProt P10635); test: CYP2D6 inhibition assay with luciferin-6-methylether ethylene glycol ester; type: biochemical; settings: substrate luciferin-6-methylether ethylene glycol ester
T1 construct: purchased Discovery Labware (BD/Gentest); host or cells: insect cell expression system (membrane fractions)

porcine esterase = test: Two-step luminescent carboxylesterase assay with D-luciferin esters; type: biochemical; settings: two step luminescent assay format
[1] = Non-enzymatic conversion of luciferin derivative by glutathione (no GST) and buffer controls; type: biochemical; settings: for Glutathione Signal: glutathione alone minus buffer; for Light Output: Table 4 reaction 1: BisTris pH 6.5, no glutathione, time post mixing in column head; for Light Reading: no enzyme, 45 min
Description: Buffer stock solutions (1 M) of BisTris at pH 6.5, HEPES, pH 7.0, 7.5 and 8.0 and Tricine pH 8.5 were prepared by dissolving solid reagent obtained from Sigma Chemical Corporation and adjusting the pH to the desired value. […]

GST A1-1 = GST A1-1 (Homo sapiens, UniProt P08263); settings: for Raw Data light reading: GST A1-1, 2 mM glutathione
Description: Enzyme and glutathione stock solutions are described in Example IA.
(§1) After assembly, the enzyme stock solutions were diluted 1:10 into 10 mM HEPES, pH 7.5 and the following additions were made to the reactions.
GST A1-1 (Sigma) is an enzyme found in a few body tissues, including kidney, intestine, lung and liver. GST M1-1 (Sigma) is a type b allelic variant, which corresponds to GST psi purified from human liver.
(§2) The reactions were allowed to proceed for 30 minutes at room temperature and then 100 μl of P450 Glo reagent was added to each reaction and the light produced by the subsequent solution was measured on a Veritas luminometer.

equine GST = test: Two-step luminescent GST assay with equine GST; type: biochemical; settings: for Raw Data light reading: Equine GST, 2 mM glutathione
Description: (§3) The derivative was tested in a two step format. For the first step, the derivative was added to a mixture with one of three GSTs with or without glutathione. At different times after the reaction was initiated, a portion was removed and mixed with a luciferase reaction mixture.
(§4) S. japonica GST: 1 vial with 3 mg GST (Part G5663, Sigma Chemical Company) was dissolved in 500 μl of 10 mM BisTris, pH 6.6.
(§5) The reactions (Table 1) were assembled by first adding the water and 1 M BisTris solutions in individual 0.5 ml microfuge tubes, then adding the other components except for the GST #3 solution. Finally, the GST #3 (FIG. 12) solution was added to the reactions, the resulting solution was mixed, and the time of addition noted.
as §1, §2

GST M1-1 = target: T2, GST M1-1 (Homo sapiens, UniProt P09488, K173N); test: Luminescent GST assay with GST M1-1; type: biochemical; settings: for Raw Data light reading: GST M1-1, 2 mM glutathione
T2 construct: purchased Sigma
T2 sequence (P09488 1-218 K173N): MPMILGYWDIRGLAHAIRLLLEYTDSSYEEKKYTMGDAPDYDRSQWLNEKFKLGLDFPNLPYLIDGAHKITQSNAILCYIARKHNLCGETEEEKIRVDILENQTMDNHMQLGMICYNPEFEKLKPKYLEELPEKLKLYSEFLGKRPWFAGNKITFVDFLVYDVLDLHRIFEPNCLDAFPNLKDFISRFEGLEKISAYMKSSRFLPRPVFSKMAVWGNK

S. japonica GST = target: T3, S. japonica GST (Schistosoma japonicum, UniProt P08515); type: biochemical; settings: for Raw Data light reading: S. japonica GST, 2 mM glutathione; for Light Reading: 45 min
T3 construct: purchased Sigma Chemical Company G5663
Description: as §3, §4, §5
Buffer stock solutions (1 M) of BisTris at pH 6.5, HEPES, pH 7.0, 7.5 and 8.0 and Tricine pH 8.5 were prepared by dissolving solid reagent obtained from Sigma Chemical Corporation and adjusting the pH to the desired value.
The GST #3 addition was performed last and the solutions were mixed immediately after addition of GST #3. […] After mixing, the light produced by the solution was measured using a Turner TD 20/20 luminometer.
The stock of S. japonica GST used in Example IA was diluted to 1 mg/ml with 10 mM BisTris pH 6.5.
The reactions were initiated by addition of GST #3 and mixing. […]

GST A1-1, sequence (P08263 whole entry): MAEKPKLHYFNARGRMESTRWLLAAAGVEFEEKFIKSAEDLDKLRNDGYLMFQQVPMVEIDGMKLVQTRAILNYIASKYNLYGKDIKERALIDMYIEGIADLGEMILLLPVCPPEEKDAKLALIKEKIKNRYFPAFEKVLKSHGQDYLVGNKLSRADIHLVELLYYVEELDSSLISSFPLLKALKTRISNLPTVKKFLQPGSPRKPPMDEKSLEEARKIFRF
T1 sequence (P10635 whole entry): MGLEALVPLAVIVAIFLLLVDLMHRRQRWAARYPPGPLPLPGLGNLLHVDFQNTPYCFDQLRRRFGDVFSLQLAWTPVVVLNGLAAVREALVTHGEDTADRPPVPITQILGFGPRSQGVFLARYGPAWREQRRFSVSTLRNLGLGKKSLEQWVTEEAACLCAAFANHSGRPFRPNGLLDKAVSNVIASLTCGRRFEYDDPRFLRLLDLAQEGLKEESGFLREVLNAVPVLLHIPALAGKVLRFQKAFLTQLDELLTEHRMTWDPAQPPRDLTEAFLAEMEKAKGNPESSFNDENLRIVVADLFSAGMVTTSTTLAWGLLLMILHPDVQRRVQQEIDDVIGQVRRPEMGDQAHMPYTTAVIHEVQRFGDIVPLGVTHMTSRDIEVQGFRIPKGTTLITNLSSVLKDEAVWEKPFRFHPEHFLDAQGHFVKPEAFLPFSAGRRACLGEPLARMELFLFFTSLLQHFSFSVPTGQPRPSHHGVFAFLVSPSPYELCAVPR
T3 sequence (P08515 whole entry): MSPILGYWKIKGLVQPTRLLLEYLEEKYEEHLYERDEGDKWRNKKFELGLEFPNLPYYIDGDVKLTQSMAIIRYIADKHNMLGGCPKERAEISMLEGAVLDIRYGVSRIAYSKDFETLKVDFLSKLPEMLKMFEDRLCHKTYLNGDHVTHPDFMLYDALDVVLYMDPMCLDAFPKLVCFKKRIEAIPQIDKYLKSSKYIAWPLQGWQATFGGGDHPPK

Compound: Clc1ccccc1C(c1ccccc1)(c1ccccc1)n1ccnc1 [clotrimazole]
- IC50 (CYP2D6): 22.6 µM

Compound: CC(C)N(CCC(C(N)=O)(c1ccccc1)c1ccccn1)C(C)C (centres unmarked) [disopyramide]
- IC50 (CYP2D6): 220 µM

Compound: CCOC(=O)[C@H]1CSC(c2nc3ccc(O)cc3s2)=N1 [D-luciferin ethyl ester]
- carboxylesterase substrate (porcine esterase): effective in this format

Compound: COC(=O)[C@H]1CSC(c2nc3ccc(O)cc3s2)=N1 [D-luciferin methyl ester]
- carboxylesterase substrate (porcine esterase): effective in this format

Compound: Acetyl Luciferin
- Glutathione Signal ([1]; 2 mM AL): 14,557
- Glutathione Signal ([1]; 20 mM AL): 147,064
- Raw Data light reading ([1]; Buffer Alone, 2 mM AL, pH 7.5, 30 min): 20,649
- Raw Data light reading ([1]; Buffer Alone, 20 mM AL, pH 7.5, 30 min): 183,852
- Raw Data light reading ([1]; Glutathione Alone (2 mM), 2 mM AL): 35,206
- Raw Data light reading ([1]; Glutathione Alone (2 mM), 20 mM AL): 330,916
- Raw Data light reading (GST A1-1; 2 mM AL): 42,725
- Raw Data light reading (GST A1-1; 20 mM AL): 365,770
- Net Enzyme Signal (GST A1-1; Net 2 mM AL): 7,519
- Net Enzyme Signal (GST A1-1; Net 20 mM AL): 34,854
- Raw Data light reading (equine GST; 2 mM AL): 39,036
- Raw Data light reading (equine GST; 20 mM AL): 361,356
- Net Enzyme Signal (equine GST; Net 2 mM AL): 3,830
- Net Enzyme Signal (equine GST; Net 20 mM AL): 30,440
- Raw Data light reading (GST M1-1; 2 mM AL): 42,867
- Raw Data light reading (GST M1-1; 20 mM AL): 419,400
- Net Enzyme Signal (GST M1-1; Net 2 mM AL): 7,661
- Net Enzyme Signal (GST M1-1; Net 20 mM AL): 88,484
- Net Enzyme Signal (S. japonica GST; Net 2 mM AL): 91,082
- Net Enzyme Signal (S. japonica GST; Net 20 mM AL): 902,203
- Raw Data light reading (S. japonica GST; 2 mM AL): 126,288
- Raw Data light reading (S. japonica GST; 20 mM AL): 1,233,119

Compound: O=C(O)[C@H]1CSC(c2ccc3cc(Oc4ccc(C(F)(F)F)cc4[N+](=O)[O-])ccc3n2)=N1 [GST #3, 6-(2-nitro-4-trifluoromethyl-phenoxy)quinolinyl-luciferin]
- Light Output ([1]; 20 minutes after mixing): 0.976
- Light Output ([1]; 40 minutes after mixing): 1.099
- Light Output ([1]; at time of mixing): 1.01
- Light Reading ([1]; Table 6 reaction 1: pH 7.5, 50 μl 10 mM GSH): 26.3
- Light Reading ([1]; reaction 3: pH 7.5, 30 μl 10 mM GSH): 19.21
- Light Reading ([1]; reaction 5: pH 7.5, 10 μl 10 mM GSH): 10.73
- Light Reading ([1]; reaction 7: pH 8.0, 50 μl 10 mM GSH): 65.98
- Light Reading ([1]; reaction 9: pH 8.0, 30 μl 10 mM GSH): 48.41
- Light Reading ([1]; reaction 11: pH 8.0, 10 μl 10 mM GSH): 22.52
- Light Reading ([1]; reaction 13: pH 8.5, 50 μl 10 mM GSH): 295.2
- Light Reading ([1]; reaction 15: pH 8.5, 30 μl 10 mM GSH): 199.4
- Light Reading ([1]; reaction 17: pH 8.5, 10 μl 10 mM GSH): 97.89
- GST preference (equine GST; light generating reaction): better substrate for equine GST in a light generating reaction than GST M1-1 and GST A1-1
- Light Reading (S. japonica GST; reaction 2: pH 7.5, 50 μl 10 mM GSH, 10 μl S. japonica GST): 61.58
- Light Reading (S. japonica GST; reaction 4: pH 7.5, 30 μl 10 mM GSH, enzyme): 55.18
- Light Reading (S. japonica GST; reaction 6: pH 7.5, 10 μl 10 mM GSH, enzyme): 52.23
- Light Reading (S. japonica GST; reaction 8: pH 8.0, 50 μl 10 mM GSH, enzyme): 152.3
- Light Reading (S. japonica GST; reaction 10: pH 8.0, 30 μl 10 mM GSH, enzyme): 135.6
- Light Reading (S. japonica GST; reaction 12: pH 8.0, 10 μl 10 mM GSH, enzyme): 97.47
- Light Reading (S. japonica GST; reaction 14: pH 8.5, 50 μl 10 mM GSH, enzyme): 532.4
- Light Reading (S. japonica GST; reaction 16: pH 8.5, 30 μl 10 mM GSH, enzyme): 416.7
- Light Reading (S. japonica GST; reaction 18: pH 8.5, 10 μl 10 mM GSH, enzyme): 267.3

Compound: O=C(OCc1cccnc1)[C@H]1CSC(c2nc3ccc(O)cc3s2)=N1 [D-luciferin picolinyl ester]
- carboxylesterase substrate (porcine esterase): effective in this format

Compound: CC(NC(C)(C)C)C(=O)c1cccc(Cl)c1 (centres unmarked) [bupropion]
- IC50 (CYP2D6): 33 µM
